Data: paper PMC11845477, “Exploring the principles behind antibiotics with limited resistance” (Nature Communications, 2025)

Legend:
[1] = tested on: E. coli ATCC 25922 (SEN) and E. coli NCTC13846 (MDR); experiment: Adaptive laboratory evolution (ALE), relative MIC of evolved lines; type: cell-based, Escherichia coli
Procedure, shortened: (§1)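 Ten parallel populations per antibiotic–ancestor pair were evolved in MHB at 37 °C, starting near 50% growth-inhibiting drug. Every 72 h they were passaged into 0.5–2.5× increasing concentrations, keeping the highest-drug well with OD600 > 0.2.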

[2] = tested on: K. pneumoniae ATCC 10031 (SEN) and K. pneumoniae ATCC 700603 (MDR); experiment: as above; type: cell-based, Klebsiella pneumoniae
Procedure, shortened: as §1

C[C@@H](O)[C@H]1C(=O)N2C(C(=O)O)=C(S[C@H]3CC[S@@+]([O-])C3)S[C@H]12 [Sulopenem]
128: Relative MIC ([1]; EC-MDR (E. coli NCTC 13846), evolved line 3 vs ancestor) | Relative MIC ([1]; EC-MDR (E. coli NCTC 13846), evolved line 4 vs ancestor) | Relative MIC ([1]; EC-MDR (E. coli NCTC 13846), evolved line 8 vs ancestor) | Relative MIC ([1]; EC-MDR (E. coli NCTC 13846), evolved line 10 vs ancestor) | Relative MIC ([1]; Escherichia coli NCTC 13846 (EC-MDR), evolved line 3) | Relative MIC ([1]; Escherichia coli NCTC 13846 (EC-MDR), evolved line 4) | Relative MIC ([1]; Escherichia coli NCTC 13846 (EC-MDR), evolved line 8) | Relative MIC ([1]; Escherichia coli NCTC 13846 (EC-MDR), evolved line 10)
2.408 log10: Relative MIC (log10) ([1]; EC-MDR (Escherichia coli NCTC 13846), evolved line 9) | Relative MIC (log10) ([2]; KP-MDR (Klebsiella pneumoniae ATCC 700603), evolved line 1) | Relative MIC (log10) ([2]; KP-MDR (Klebsiella pneumoniae ATCC 700603), evolved line 3) | Relative MIC (log10) ([2]; KP-MDR (Klebsiella pneumoniae ATCC 700603), evolved line 4) | Relative MIC (log10) ([2]; KP-MDR (Klebsiella pneumoniae ATCC 700603), evolved line 8) | Relative MIC (log10) ([2]; KP-MDR (Klebsiella pneumoniae ATCC 700603), evolved line 9)
2.709 log10: Relative MIC (log10) ([1]; EC-MDR (Escherichia coli NCTC 13846), evolved line 5)
1.505 log10: Relative MIC (log10) ([2]; KP-SEN (Klebsiella pneumoniae ATCC 10031), evolved line 1) | Relative MIC (log10) ([2]; KP-SEN (Klebsiella pneumoniae ATCC 10031), evolved line 2) | Relative MIC (log10) ([2]; KP-SEN (Klebsiella pneumoniae ATCC 10031), evolved line 6) | Relative MIC (log10) ([2]; KP-SEN (Klebsiella pneumoniae ATCC 10031), evolved line 8) | Relative MIC (log10) ([2]; KP-SEN (Klebsiella pneumoniae ATCC 10031), evolved line 10)
8: Relative MIC ([1]; EC-SEN (E. coli ATCC 25922), evolved line 5 vs ancestor) | Relative MIC ([1]; EC-SEN (E. coli ATCC 25922), evolved line 6 vs ancestor) | Relative MIC ([1]; EC-SEN (E. coli ATCC 25922), evolved line 7 vs ancestor) | Relative MIC ([1]; EC-SEN (E. coli ATCC 25922), evolved line 8 vs ancestor) | Relative MIC ([1]; Escherichia coli ATCC 25922 (EC-SEN), evolved line 5) | Relative MIC ([1]; Escherichia coli ATCC 25922 (EC-SEN), evolved line 6) | Relative MIC ([1]; Escherichia coli ATCC 25922 (EC-SEN), evolved line 7) | Relative MIC ([1]; Escherichia coli ATCC 25922 (EC-SEN), evolved line 8) | Relative MIC ([2]; KP-SEN (K. pneumoniae ATCC 10031), evolved line 3 vs ancestor) | Relative MIC ([2]; Klebsiella pneumoniae ATCC 10031 (KP-SEN), evolved line 3)
512: Relative MIC ([1]; EC-MDR (E. coli NCTC 13846), evolved line 1 vs ancestor) | Relative MIC ([1]; EC-MDR (E. coli NCTC 13846), evolved line 5 vs ancestor) | Relative MIC ([1]; Escherichia coli NCTC 13846 (EC-MDR), evolved line 1) | Relative MIC ([1]; Escherichia coli NCTC 13846 (EC-MDR), evolved line 5)
2.107 log10: Relative MIC (log10) ([1]; EC-MDR (Escherichia coli NCTC 13846), evolved line 4) | Relative MIC (log10) ([1]; EC-MDR (Escherichia coli NCTC 13846), evolved line 8) | Relative MIC (log10) ([1]; EC-MDR (Escherichia coli NCTC 13846), evolved line 10)
16 µg/mL: MIC of evolved line ([1]; EC-MDR (E. coli NCTC 13846), evolved line 1 of the given antibiotic) | MIC of evolved line ([1]; EC-MDR (E. coli NCTC 13846), evolved line 5 of the given antibiotic)
0.6021 log10: Relative MIC (log10) ([1]; EC-SEN (Escherichia coli ATCC 25922), evolved line 9) | Relative MIC (log10) ([1]; EC-SEN (Escherichia coli ATCC 25922), evolved line 10)
16: Relative MIC ([1]; EC-MDR (E. coli NCTC 13846), evolved line 2 vs ancestor) | Relative MIC ([1]; EC-MDR (E. coli NCTC 13846), evolved line 7 vs ancestor) | Relative MIC ([1]; Escherichia coli NCTC 13846 (EC-MDR), evolved line 2) | Relative MIC ([1]; Escherichia coli NCTC 13846 (EC-MDR), evolved line 7) | Relative MIC ([2]; KP-SEN (K. pneumoniae ATCC 10031), evolved line 4 vs ancestor) | Relative MIC ([2]; KP-SEN (K. pneumoniae ATCC 10031), evolved line 5 vs ancestor) | Relative MIC ([2]; KP-SEN (K. pneumoniae ATCC 10031), evolved line 9 vs ancestor) | Relative MIC ([2]; Klebsiella pneumoniae ATCC 10031 (KP-SEN), evolved line 4) | Relative MIC ([2]; Klebsiella pneumoniae ATCC 10031 (KP-SEN), evolved line 5) | Relative MIC ([2]; Klebsiella pneumoniae ATCC 10031 (KP-SEN), evolved line 9)
0.25 µg/mL: MIC of evolved line ([1]; EC-SEN (E. coli ATCC 25922), evolved line 5 of the given antibiotic) | MIC of evolved line ([1]; EC-SEN (E. coli ATCC 25922), evolved line 6 of the given antibiotic) | MIC of evolved line ([1]; EC-SEN (E. coli ATCC 25922), evolved line 7 of the given antibiotic) | MIC of evolved line ([1]; EC-SEN (E. coli ATCC 25922), evolved line 8 of the given antibiotic) | MIC of evolved line ([2]; KP-SEN (K. pneumoniae ATCC 10031), evolved line 3 of the given antibiotic)
0.125 µg/mL: MIC of evolved line ([1]; EC-SEN (E. coli ATCC 25922), evolved line 9 of the given antibiotic) | MIC of evolved line ([1]; EC-SEN (E. coli ATCC 25922), evolved line 10 of the given antibiotic)
0.9031 log10: Relative MIC (log10) ([1]; EC-SEN (Escherichia coli ATCC 25922), evolved line 6) | Relative MIC (log10) ([1]; EC-SEN (Escherichia coli ATCC 25922), evolved line 7) | Relative MIC (log10) ([1]; EC-SEN (Escherichia coli ATCC 25922), evolved line 8)
128 µg/mL: MIC of evolved line ([2]; KP-MDR (K. pneumoniae ATCC 700603), evolved line 1 of the given antibiotic) | MIC of evolved line ([2]; KP-MDR (K. pneumoniae ATCC 700603), evolved line 3 of the given antibiotic) | MIC of evolved line ([2]; KP-MDR (K. pneumoniae ATCC 700603), evolved line 4 of the given antibiotic) | MIC of evolved line ([2]; KP-MDR (K. pneumoniae ATCC 700603), evolved line 5 of the given antibiotic) | MIC of evolved line ([2]; KP-MDR (K. pneumoniae ATCC 700603), evolved line 8 of the given antibiotic) | MIC of evolved line ([2]; KP-MDR (K. pneumoniae ATCC 700603), evolved line 9 of the given antibiotic) | MIC of evolved line ([2]; KP-MDR (K. pneumoniae ATCC 700603), evolved line 10 of the given antibiotic)
4 µg/mL: MIC of evolved line ([1]; EC-MDR (E. coli NCTC 13846), evolved line 3 of the given antibiotic) | MIC of evolved line ([1]; EC-MDR (E. coli NCTC 13846), evolved line 4 of the given antibiotic) | MIC of evolved line ([1]; EC-MDR (E. coli NCTC 13846), evolved line 8 of the given antibiotic) | MIC of evolved line ([1]; EC-MDR (E. coli NCTC 13846), evolved line 10 of the given antibiotic)
32: Relative MIC ([2]; KP-SEN (K. pneumoniae ATCC 10031), evolved line 1 vs ancestor) | Relative MIC ([2]; KP-SEN (K. pneumoniae ATCC 10031), evolved line 2 vs ancestor) | Relative MIC ([2]; KP-SEN (K. pneumoniae ATCC 10031), evolved line 6 vs ancestor) | Relative MIC ([2]; KP-SEN (K. pneumoniae ATCC 10031), evolved line 8 vs ancestor) | Relative MIC ([2]; KP-SEN (K. pneumoniae ATCC 10031), evolved line 10 vs ancestor) | Relative MIC ([2]; Klebsiella pneumoniae ATCC 10031 (KP-SEN), evolved line 1) | Relative MIC ([2]; Klebsiella pneumoniae ATCC 10031 (KP-SEN), evolved line 2) | Relative MIC ([2]; Klebsiella pneumoniae ATCC 10031 (KP-SEN), evolved line 6) | Relative MIC ([2]; Klebsiella pneumoniae ATCC 10031 (KP-SEN), evolved line 8) | Relative MIC ([2]; Klebsiella pneumoniae ATCC 10031 (KP-SEN), evolved line 10)
0.5 µg/mL: MIC of evolved line ([1]; EC-MDR (E. coli NCTC 13846), evolved line 2 of the given antibiotic) | MIC of evolved line ([1]; EC-MDR (E. coli NCTC 13846), evolved line 7 of the given antibiotic) | MIC of evolved line ([2]; KP-SEN (K. pneumoniae ATCC 10031), evolved line 4 of the given antibiotic) | MIC of evolved line ([2]; KP-SEN (K. pneumoniae ATCC 10031), evolved line 5 of the given antibiotic) | MIC of evolved line ([2]; KP-SEN (K. pneumoniae ATCC 10031), evolved line 9 of the given antibiotic)
8 µg/mL: MIC of evolved line ([1]; EC-MDR (E. coli NCTC 13846), evolved line 9 of the given antibiotic)
1 µg/mL: MIC of evolved line ([2]; KP-SEN (K. pneumoniae ATCC 10031), evolved line 1 of the given antibiotic) | MIC of evolved line ([2]; KP-SEN (K. pneumoniae ATCC 10031), evolved line 2 of the given antibiotic) | MIC of evolved line ([2]; KP-SEN (K. pneumoniae ATCC 10031), evolved line 6 of the given antibiotic) | MIC of evolved line ([2]; KP-SEN (K. pneumoniae ATCC 10031), evolved line 8 of the given antibiotic) | MIC of evolved line ([2]; KP-SEN (K. pneumoniae ATCC 10031), evolved line 10 of the given antibiotic)
256: Relative MIC ([1]; EC-MDR (E. coli NCTC 13846), evolved line 9 vs ancestor) | Relative MIC ([1]; Escherichia coli NCTC 13846 (EC-MDR), evolved line 9) | Relative MIC ([2]; KP-MDR (K. pneumoniae ATCC 700603), evolved line 1 vs ancestor) | Relative MIC ([2]; KP-MDR (K. pneumoniae ATCC 700603), evolved line 3 vs ancestor) | Relative MIC ([2]; KP-MDR (K. pneumoniae ATCC 700603), evolved line 4 vs ancestor) | Relative MIC ([2]; KP-MDR (K. pneumoniae ATCC 700603), evolved line 5 vs ancestor) | Relative MIC ([2]; KP-MDR (K. pneumoniae ATCC 700603), evolved line 8 vs ancestor) | Relative MIC ([2]; KP-MDR (K. pneumoniae ATCC 700603), evolved line 9 vs ancestor) | Relative MIC ([2]; KP-MDR (K. pneumoniae ATCC 700603), evolved line 10 vs ancestor) | Relative MIC ([2]; Klebsiella pneumoniae ATCC 700603 (KP-MDR), evolved line 1) | Relative MIC ([2]; Klebsiella pneumoniae ATCC 700603 (KP-MDR), evolved line 3) | Relative MIC ([2]; Klebsiella pneumoniae ATCC 700603 (KP-MDR), evolved line 4) | Relative MIC ([2]; Klebsiella pneumoniae ATCC 700603 (KP-MDR), evolved line 5) | Relative MIC ([2]; Klebsiella pneumoniae ATCC 700603 (KP-MDR), evolved line 8) | Relative MIC ([2]; Klebsiella pneumoniae ATCC 700603 (KP-MDR), evolved line 9) | Relative MIC ([2]; Klebsiella pneumoniae ATCC 700603 (KP-MDR), evolved line 10)
4: Relative MIC ([1]; EC-SEN (E. coli ATCC 25922), evolved line 9 vs ancestor) | Relative MIC ([1]; EC-SEN (E. coli ATCC 25922), evolved line 10 vs ancestor) | Relative MIC ([1]; Escherichia coli ATCC 25922 (EC-SEN), evolved line 9) | Relative MIC ([1]; Escherichia coli ATCC 25922 (EC-SEN), evolved line 10)
